Data: patent publication US10710992B2, “Substituted pyridinones as bromodomain inhibitors” (Zenith Epigenetics Ltd., priority 2014, dated 2020)
pIC50: −log10 of the molar value.

Legend:
hApoA-1 mRNA = assay: Up-regulation of hApoA-1 mRNA transcription in Huh7 cells; format: cell-based, Human; conditions: EC170, Huh7 cells, 48 h
Method: In this example, hApoA-1 mRNA in tissue culture cells was quantitated to measure the transcriptional up-regulation of hApoA-1 when treated with a compound of the present disclosure.
Huh7 cells (2.5×10^5 per well) were plated in a 96-well plate using 100 μL DMEM per well, (Gibco DMEM supplemented with penicillin streptomycin and 10% FBS), 72 h before the addition of the compound. The cells are treated with increasing concentrations of the compound or DMSO (0.1%), and incubated at 37° C., 5% CO2 for 48 h. Spent media was removed from the Huh-7 cells and placed on ice for immediate use with the “LDH cytotoxicity assay Kit II” from Abcam. The cells remaining in the plate were rinsed with 100 μL PBS. Cells were harvested using the mRNA Catcher PLUS kit according to manufacturer's instructions. The eluted mRNA was then used in a one-step quantitative real-time PCR reaction, using components of the RNA UltraSense™ One-Step Kit (Life Technologies) together with Applied Biosystems TaqMan® primer-probes for hApoA-1 and Cyclophilin. Real-time PCR plates were run on a ViiA™ 7 real time PCR machine (Applied Biosystems), data was analyzed, normalizing the Ct values for hApoA-1 to an internal control, prior to determining the fold induction of each unknown sample, relative to the control.

[1] = biological target: T1, Brd4 bromodomain 1 (BRD4(1)) (Homo sapiens, UniProt O60885); assay: Inhibition of tetra-acetylated histone H4 binding to BET bromodomain (HTRF/FRET); conditions: His-tagged bromodomain 200 nM, tetra-acetylated histone H4 peptide, 2 h room temperature
T1 construct: made in house; host or cells: E. coli BL21(DE3)
Method: Proteins were cloned and overexpressed with a N-terminal 6× His tag, then purified by nickel affinity followed by size exclusion chromatography. Briefly, E. coli BL21(DE3) cells were transformed with a recombinant expression vector encoding N-terminally Nickel affinity tagged bromodomains from Brd2, Brd3, Brd4. Cell cultures were incubated at 37° C. with shaking to the appropriate density and induced overnight with IPTG. The supernatant of lysed cells was loaded onto Ni-IDA column for purification. Eluted protein was pooled, concentrated and further purified by size exclusion chromatography. Fractions representing monomeric protein were pooled, concentrated, aliquoted, and frozen at −80° C. for use in subsequent experiments.
Binding of tetra-acetylated histone H4 and BET bromodomains was confirmed by a Homogenous Time Resolved Fluorescence Resonance Energy Transfer (HTRF®) method. N-terminally His-tagged bromodomains (200 nM) and biotinylated tetra-acetylated historic H4 peptide (25-50 nM, Millipore) were incubated in the presence of Europium Cryptate-labeled streptavidin (Cisbio Cat. #610SAKLB) and XL665-labeled monoclonal anti-His antibody (Cisbio Cat. #61HISXLB) in a white 96 well microtiter plate (Greiner). For inhibition assays, serially diluted test compound was added to these reactions in a 0.2% final concentration of DMSO. Duplicate wells were used for each concentration tested. Final buffer concentrations were 30 mM HEPES pH 7.4, 30 mM NaCl, 0.3 mM CHAPS, 20 mM phosphate pH 7.0, 320 mM KF, 0.08% BSA. After a 2 h incubation at room temperature, fluorescence was measured at 665 and 620 nm with a SynergyH4 plate reader (Biotek). The binding inhibitory activity was shown by a decrease in 665 nm relative to […] fluorescence. IC50 values were determined from a dose response curve.

hIL-6 mRNA = assay: Inhibition of hIL-6 mRNA transcription in LPS-stimulated U937 cells; format: cell-based; conditions: Homo sapiens, U-937; PMA-differentiated U937 cells, 1 h pretreatment, LPS 1 ug/mL, 3 h; read-out: IL-6 activity
Method: Human leukemic monocyte lymphoma U937 cells (CRL-1593.2) were plated at a density of 3.2×10^4 cells per well in a 96-well plate in 100 μL RPMI-1640 containing 10% FBS and penicillin/streptomycin, and differentiated into macrophages for 3 days in 60 ng/mL PMA ([…]) at 37° C. in 5% CO2 prior to the addition of compound. The cells were pretreated for 1 h with increasing concentrations of test compound in 0.1% DMSO prior to stimulation with 1 ug/mL lipopolysaccharide from Escherichia coli. Triplicate wells were used for each concentration. The cells were incubated at 37° C., 5% CO2 for 3 h before the cells were harvested. At time of harvest, media was removed and cells were rinsed in 200 μL PBS. Cells were harvested using the mRNA Catcher PLUS kit according to manufacturer's instructions. The eluted mRNA was then used in a one-step quantitative real-time PCR reaction using components of the RNA UltraSense™ One-Step Kit (Life Technologies) together with Applied Biosystems TaqMan® primer-probes for hIL-6 and Cyclophilin. Real-time PCR plates were run on a ViiA™ 7 real time PCR machine (Applied Biosystems), data was analyzed, normalizing the Ct values for hIL-6 to an internal control, prior to determining the fold expression of each sample, relative to the control.

[2] = system: c-myc in Human AML MV4-11 cells; assay: Inhibition of cMYC expression in cancer cell lines (mRNA, real-time PCR); format: cell-based; conditions: Homo sapiens, 3 h, cMYC mRNA normalized to Cyclophilin
Method: MV4-11 cells (CRL-9591) were plated at a density of 2.5×10^4 cells per well in 96 well U-bottom plates and treated with increasing concentrations of test compound or DMSO (0.1%) in IMDM media containing 10% FBS and penicillin/streptomycin, and incubated for 3 h at 37° C. Triplicate wells were used for each concentration. Cells were pelleted by centrifugation and harvested using the mRNA Catcher PLUS kit according to manufacturer's instructions. The eluted mRNA isolated was then used in a one-step quantitative real-time PCR reaction, using components of the RNA UltraSense™ One-Step Kit (Life Technologies) together with Applied Biosystems TaqMan® primer-probes for cMYC and Cyclophilin. Real-time PCR plates were run on a ViiA™ 7 real time PCR machine (Applied Biosystems), data was analyzed, normalizing the Ct values for cMYC to an internal control, prior to determining the fold expression of each sample, relative to the control.

Human AML MV-4-11 cells = assay: Inhibition of cell proliferation in cancer cell lines (CellTiter Aqueous One); format: cell-based; conditions: Homo sapiens; MV4-11 cells, 72 h
Method: MV4-11 cells (CRL-9591) were plated at a density of 5×10^4 cells per well in 96 well flat bottom plates and treated with increasing concentrations of test compound or DMSO (0.1%) in IMDM media containing 10% FBS and penicillin/streptomycin. Triplicate wells were used for each concentration and a well containing only media was used as a control. Plates were incubated at 37° C., 5% CO2 for 72 h before adding 20 μL of the CellTiter Aqueous One Solution (Promega) to each well and incubated at 37° C., 5% CO2 for an additional 3-4 h. The absorbance was read at 490 nm in a spectrophotometer and the percentage of cell titer relative to DMSO-treated cells was calculated after correcting for background by subtracting the blank well's signal. IC50 values were calculated using the GraphPad Prism software.

Compound	ApoA-1 activity (hApoA-1 mRNA)	pIC50 [1]	pIC50 (hIL-6 mRNA)	pIC50 [2]	pIC50 (Human AML MV-4-11 cells)
Cc1noc(C)c1-c1c[nH]c(=O)c(Nc2cccnc2)c1 [Example 2, 5-(3,5-dimethylisoxazol-4-yl)-3-(pyridin-3-ylamino)pyridin-2(1H)-one]	+ (EC170 value between 3 and 30 μM were deemed to be active (+))	4.52 to 5.52	4.52 to 5.52		
Cc1noc(C)c1-c1c[nH]c(=O)c(Nc2ccccc2)c1 [Example 1, 5-(3,5-dimethylisoxazol-4-yl)-3-(phenylamino)pyridin-2(1H)-one]	++ (EC170 value between 0.3 and 3 μM were deemed to be very active (++))	5.52 to 6.52	5.52 to 6.52	4.52 to 5.52	4.52 to 5.52
